Results published in a melting point compilation (Tetko et al.; mined from patent text by program, amines drawn as free bases though some values may be those of a salt).

First: CC(C)(C)c1ccc(S(=O)(=O)N2c3ccccc3C[C@H]2C(=O)NCc2ccc(CCC(=O)O)cc2)cc1
Second: CCCc1ccc(-c2c3ccccc3c(-c3ccc(CCC)cc3)c3cc(Cl)ccc23)cc1
The melting point of the first is lower: 80 to 85 °C for the first, 225 to 227 °C for the second.

First: COC(=O)CCCCCCCCCCNC(=O)C(CSC(C)=O)Cc1ccccc1 (centres undefined)
Second: CCCCCCCCC1(CCCCCCCC)c2cc(O)ccc2-c2ccc(Br)cc21
The melting point of the first is lower: 64 to 66 °C for the first, 110 °C for the second.

Compared with `COc1cc2ccccc2cc1O`, `CCCOc1ccc2cc(OCc3ccccc3)c(C(=O)O)cc2c1` is higher in melting point: 108 to 109 °C for the first, 125 to 128 °C for the second.

Compared with `Cc1nn(-c2c(Cl)cc(C(F)(F)F)cc2Cl)cc1C#C[Si](C)(C)C`, `CNc1sc(-c2cccnc2)nc1C(F)(F)F` is higher in melting point: 76 to 78 °C for the first, 152 to 157 °C for the second.

Compared with `CCOC(=O)C1(O)C=CC(N=Nc2ccccc2)=CC1` (centres undefined), `CCOC(=O)C1CCc2[nH]c3ccccc3c2C1` (centres undefined) is lower in melting point: 153 to 154 °C for the first, 95 to 96 °C for the second.

First: CCOC(OCC)C(=O)OCc1c(-c2cnccn2)ssc1=O
Second: CCOC(=O)c1cnc2c(cnn2CC)c1Cl
The melting point of the first is higher: 74 to 76 °C for the first, 55 to 60 °C for the second.

Compared with `Nc1nc(-c2ccc(F)cc2)cn1N`, `N#Cc1ccc(N(Cc2ccc(OS(N)(=O)=O)cc2)n2cnnc2)cc1-c1ccc(F)cc1` is lower in melting point: 227 to 230 °C for the first, 197 to 199 °C for the second.

First: CCON1CCC2(CC1)NC(=O)C(c1c(C)cc(C)cc1C)=C2O
Second: CC1=C(C)N(c2c(Br)cc(C)cc2Br)C2=NCCN21
The melting point of the first is higher: > 250 °C for the first, 154 to 156 °C for the second.

First: CC1=NCCc2c1n(-c1ccccc1)c1ccccc21
Second: O=C(Nc1ccccc1I)c1ccccc1
The melting point of the first is lower: 110 to 112 °C for the first, 147 to 148 °C for the second.

First: CS(=O)(=O)Nc1ccc(C(=O)Cc2ccccc2)cc1Sc1ccc(F)cc1F
Second: N#CCCNC(=O)c1cccc(-c2cccc(Oc3ccccc3Cl)n2)c1
The melting point of the first is higher: 120 to 122 °C for the first, 82 to 83 °C for the second.

First: COc1ccc(OCC(=O)O)c(OC)c1OC
Second: COc1cc(C(=O)c2c[nH]c(-c3c[nH]c4ccccc34)n2)cc(OC)c1OC
The melting point of the first is lower: 102 to 104 °C for the first, 208 to 210 °C for the second.

First: O=C1C=C(O)C(=O)c2cc(Br)ccc21
Second: CC(=O)NCc1c(O)cc2c3c(cccc13)C(=O)N(O)C2=O
The melting point of the first is lower: 197 °C for the first, 268 to 272 °C for the second.

First: O=C(NC1CC1)c1c(NC(=O)c2cc(C(F)(F)F)nn2-c2ncccc2Cl)ccc2cc[nH]c12
Second: O=C(Nc1cnc2c(c1)nc1n2CCCC1)c1cc2cc(C(F)(F)F)ccc2n1Cc1cccc(F)c1
The melting point of the first is lower: 239 to 241 °C for the first, 262 to 263 °C for the second.

First: COc1ccc(-c2cc3ccc(C(=O)O)cc3o2)cc1C(C)(C)C
Second: Cc1ccc(CNC(=O)c2cc(Cl)cc3cc(C)oc23)cc1
The melting point of the first is higher: 235 °C for the first, 130 to 132 °C for the second.

First: CC(=O)N1CCN(C(=O)c2cc3ccnc(Cl)c3[nH]2)CC1
Second: CCCOc1ncc(C(C)=O)cc1-c1nc2c(CC)n(C3CN(C(C)=O)C3)nc2c(=O)[nH]1
The melting point of the first is lower: 179 to 184 °C for the first, 229 to 230 °C for the second.

First: CCc1nc2c(N)nc3c(c2n1CC(C)(C)OCCS(C)(=O)=O)CCCC3
Second: CC(=O)CC(C)(C)Cn1c(C)nc2c(N)nc3ccccc3c21
The melting point of the first is higher: 225 to 227 °C for the first, 223 to 225 °C for the second.

First: COc1cc(C=O)c(F)cc1Cl
Second: C=CCN(C)C/C=C/COc1cc2c(cc1F)c(-c1ccc(Br)cc1)nn2C
The melting point of the first is lower: 120 to 122 °C for the first, 135 to 137 °C for the second.

First: CC(C)(NC(=O)c1nnc2ccc(OCCCN3CCC(OC(c4ccccc4)c4ccccc4)CC3)nn12)C(=O)O
Second: CCOC(=O)C(C)(C)c1cn2nc(NCCCN3CCC(NC(c4ccccc4)c4ccccc4)CC3)ccc2n1
The melting point of the first is higher: 163 to 165 °C for the first, 115 to 117 °C for the second.

First: Cc1nc2c(NC(=O)C(C)(C)C)c(C(=O)C=Cc3ccccc3)ccn2c1C
Second: COc1cc(C(=O)C=Cc2ccncc2)ccc1OCC(=O)Nc1nc2ccccc2s1
The melting point of the first is lower: 108 to 110 °C for the first, 206 to 207 °C for the second.

Compared with `CCc1ncnc(N[C@H]2CS[C@@H](c3ccc(C)cc3)SC2)c1Cl`, `CCC(O)CN1CCN(C2Cc3ccc(F)cc3Sc3ccc(N)cc32)CC1` (centres undefined) is higher in melting point: 138 to 139 °C for the first, 184 to 186 °C for the second.

First: CCOC(=O)C1=C(C)Nc2nc(N3CCOCC3)nc(N3CCOCC3)c2C1c1ccccc1C (centres undefined)
Second: CCOC(=O)CC(=O)COCC1=C(C(=O)OCC)C(c2cccc(Cl)c2Cl)C(C(=O)OC)=C(C)N1 (centres undefined)
The melting point of the first is higher: 234 °C for the first, 99 to 102 °C for the second.

First: O=C(O)c1cccc(CS(=O)(=O)CCO)c1
Second: O=C(CBr)c1ccc(O)cc1
The melting point of the first is lower: 67 to 70 °C for the first, 115 to 118 °C for the second.

First: Cc1cc(-c2ccccc2)nn2cnnc12
Second: C[C@H]1CCCN(C(=O)[C@@H]2Cc3ccccc3N2c2ccc3nncn3n2)C1
The melting point of the first is lower: 150 to 151 °C for the first, > 300 °C for the second.

First: C=CC(C)(C)C(O)(COc1ccc(-c2ccccc2)cc1)Cn1cncn1 (centres undefined)
Second: CC(C)(C)OC(=O)N(CCOc1cccc2[nH]cc(Cl)c12)Cc1ccccc1
The melting point of the first is lower: 85 to 87 °C for the first, 106 to 108 °C for the second.

Compared with `CC(=O)Oc1ccc2nc(C(N)=O)nc(O)c2c1`, `CCC(=O)c1cc(Cl)c(Cl)c2c1OCC(C(=O)O)O2` (centres undefined) is lower in melting point: 250 °C for the first, 229 to 231 °C for the second.

First: N#CC1=C(C#N)Sc2nc3cc([N+](=O)[O-])c([N+](=O)[O-])cc3nc2S1
Second: CCC(CC)Nc1c([N+](=O)[O-])cc(C)c(COC(=O)COc2ccc(Cl)cc2Cl)c1[N+](=O)[O-]
The melting point of the first is higher: 230 to 233 °C for the first, 103 to 106 °C for the second.

Compared with `O=C1CCCc2c1ccc1c2OCO1`, `COc1ccc(C#Cc2ccncc2)c2c1OC1(CCCC1)C2` is lower in melting point: 132 to 136 °C for the first, 128 to 131 °C for the second.

First: OC1CCN(C(c2ccccc2)(c2ccccc2)c2ccccc2)CC1
Second: O=C(O)CCCn1ccc(=O)c(OCc2ccccc2)c1C(O)c1ccccc1 (centres undefined)
The melting point of the first is lower: 157 to 158 °C for the first, 205 to 210 °C for the second.

First: O=C(Nc1ccc(S(=O)(=O)c2ccccc2)cc1)C1(O)CCCC1
Second: N#CCCCOc1ccc(C(=O)Nc2ccc(-n3nc(-c4cccnc4)cc3C#N)cc2)cn1
The melting point of the first is higher: 214 to 216 °C for the first, 190 to 191 °C for the second.

First: CC(C)Nc1nc2cc(F)c(F)c(F)c2n1[C@@H]1O[C@H](C)[C@@H](O)[C@H]1O
Second: Cc1cc(Br)c(NC(=O)CBr)c(Br)n1
The melting point of the first is lower: 175 to 178 °C for the first, 197 to 199 °C for the second.

First: COc1ccc2c(c1)C(=NOCCN(C)C)c1c-2c(N2CCNCC2)nc2ccccc12
Second: Cn1cncc1C(O)(c1ccc(Cl)cc1)c1ccc2c(c1)C(c1cccc(Cl)c1)n1nnnc1N2 (centres undefined)
The melting point of the first is lower: 84 to 86 °C for the first, > 260 °C for the second.

First: O=C(NCCCc1ccc(CC(CCCc2ccccc2)(C(=O)OCc2ccccc2)C(=O)OCc2ccccc2)cc1)c1ccc(-c2ccccn2)cc1
Second: O=C1OC(=O)c2ccc3c4cccc5cccc(c6ccc1c2c63)c54
The melting point of the first is lower: 118 to 120 °C for the first, > 260 °C for the second.

First: CNC(=O)[C@@H](C[C@H](O)[C@H](CC1CCCCC1)NC(=O)OC(C)(C)C)C1(O)CCCCC1
Second: CC(SC#N)C(=O)N(CC(=O)OC(C)(C)C)C1CCCC1 (centres undefined)
The melting point of the first is higher: 175 to 177 °C for the first, 76 to 78 °C for the second.

First: CC1(C)C(C=CC(=O)OCC(F)(F)F)C1C(=O)OC(C#N)c1ccc(F)c(Oc2ccccc2)c1 (centres undefined)
Second: COc1c(C=Cc2ccc(C=CC3=C(C#N)C(=C(C#N)C#N)OC3(C)C)s2)cc2c3c1CCCN3CCC2
The melting point of the first is lower: 56 °C for the first, 201 to 204 °C for the second.

`CCNC(=O)c1c(Br)csc1[Si](C)(C)C` gave a melting point of 93 to 96 °C.
